This is an account of results in US9670193B2 (Novartis AG, priority 2011, dated 2017).

SMILES strings stand for the structures.

What all share (type): biochemical
What all share (settings): 5 μM substrate, 2 hours at room temperature

One assay has as its target Human recombinant HDAC4 (Homo sapiens (Human), UniProt P56524). Put plainly: HDAC4 assay (Test 1), fluorescence, acetyl-Gly-Ala-Lys(ε-trifluoroacetyl)-AMC substrate. As for the experimental part: Test 1: HDAC4 Assay Description
(§1) Human recombinant HDAC4 was expressed in full length form (aa 2-1084) in Sf9 insect cells (obtained from ATCC) using baculovirus generated with Bac-to-Bac system (Invitrogen). Test compounds were serially diluted to reach final test concentrations from 0.000128 μM to 10 μM. HDAC4 and test compounds were incubated in 25 mM Tris buffer pH 8.0 containing 137 mM NaCl, 2.7 mM KCl, 1 mM MgCl2, 0.05% (w/v) bovine serum albumine and 0.005% (v/v) Triton-X-100 for 2 hours at room temperature in presence of 5 μM of acetyl-Gly-Ala-Lys(ε-trifluoroacetyl)-AMC (AMC=7-amino-4-methyl coumarin) in a final volume of 9 μl. Control wells with HDAC4 only (positive control) and without HDAC4 (negative control) were included on the microplate. Bovine trypsin (4.5 μl of a 300 nM solution) was added and the plate incubated for additional 15 minutes at room temperature. The plate was placed in a fluorescence microplate reader, and read at an excitation wavelength of 360 nm and an emission wavelength of 450 nm with a 10 nm bandpath. Fluorescence values for all wells containing HDAC4 (positive control and wells with test compound) were corrected by subtracting negative control fluorescence values, and IC50 values were calculated by fitting the dose-response curves to a 4-parameter logistic function.

Assay [1] concerns the target Human recombinant full length HDAC1 (Homo sapiens (Human), UniProt Q13547). Put plainly: HDAC1 assay (Test 2), acetyl-Gly-Ala-Lys(acetyl)-AMC substrate. As for the experimental part: as §1
Test 2: HDAC1 Assay Description
A similar assay procedure as described in Test 1 was used for HDAC1. Human recombinant full length HDAC1 expressed in a baculovirus expression system was purchased from BPS BioSciences (San Diego, Calif., U.S.A.). The substrate used in the […] assay was 5 μM of acetyl-Gly-Ala-Lys(acetyl)-AMC.

Assay [2] addresses Human recombinant full length HDAC6 (Homo sapiens (Human), UniProt Q9UBN7). Put plainly: HDAC6 assay (Test 3), acetyl-Gly-Ala-Lys(acetyl)-AMC substrate. Here is the method: as §1
Test 3: HDAC6 Assay Description
A similar assay procedure as described in Test 1 was used for HDAC6. Human recombinant full length HDAC6 expressed in a baculovirus expression system was purchased from BPS BioSciences (San Diego, Calif., U.S.A.). The substrate used in the […] assay was 5 μM of acetyl-Gly-Ala-Lys (acetyl)-AMC.

Human recombinant HDAC4, sequence (P56524 2-1084): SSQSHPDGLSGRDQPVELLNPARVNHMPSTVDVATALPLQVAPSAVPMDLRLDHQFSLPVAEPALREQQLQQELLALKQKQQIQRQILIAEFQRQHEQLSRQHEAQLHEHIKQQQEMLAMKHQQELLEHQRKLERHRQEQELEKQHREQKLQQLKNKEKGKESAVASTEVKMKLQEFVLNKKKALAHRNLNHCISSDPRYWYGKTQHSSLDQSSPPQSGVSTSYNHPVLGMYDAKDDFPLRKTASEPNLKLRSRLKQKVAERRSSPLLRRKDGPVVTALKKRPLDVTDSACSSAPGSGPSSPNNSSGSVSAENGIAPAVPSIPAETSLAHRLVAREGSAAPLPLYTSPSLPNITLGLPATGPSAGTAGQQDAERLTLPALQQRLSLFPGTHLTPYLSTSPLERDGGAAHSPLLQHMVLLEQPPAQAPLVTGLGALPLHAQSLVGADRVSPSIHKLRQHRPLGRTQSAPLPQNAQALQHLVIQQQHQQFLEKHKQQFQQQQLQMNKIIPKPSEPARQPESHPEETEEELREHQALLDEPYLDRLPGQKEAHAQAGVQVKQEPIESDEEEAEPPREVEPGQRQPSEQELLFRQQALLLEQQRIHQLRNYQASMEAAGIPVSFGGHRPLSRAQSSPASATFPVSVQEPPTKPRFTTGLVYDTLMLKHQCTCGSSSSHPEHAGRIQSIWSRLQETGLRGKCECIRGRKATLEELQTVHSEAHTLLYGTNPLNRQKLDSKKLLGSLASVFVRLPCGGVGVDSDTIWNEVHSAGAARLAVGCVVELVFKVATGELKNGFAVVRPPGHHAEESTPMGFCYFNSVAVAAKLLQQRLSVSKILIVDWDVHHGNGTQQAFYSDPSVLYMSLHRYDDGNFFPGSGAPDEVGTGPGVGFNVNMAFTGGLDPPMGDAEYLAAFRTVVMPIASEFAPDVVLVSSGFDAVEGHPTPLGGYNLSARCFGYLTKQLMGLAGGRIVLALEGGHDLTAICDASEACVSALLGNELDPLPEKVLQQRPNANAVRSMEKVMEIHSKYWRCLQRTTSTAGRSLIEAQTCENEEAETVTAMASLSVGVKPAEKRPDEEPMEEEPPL
Human recombinant full length HDAC1, sequence (Q13547 whole entry): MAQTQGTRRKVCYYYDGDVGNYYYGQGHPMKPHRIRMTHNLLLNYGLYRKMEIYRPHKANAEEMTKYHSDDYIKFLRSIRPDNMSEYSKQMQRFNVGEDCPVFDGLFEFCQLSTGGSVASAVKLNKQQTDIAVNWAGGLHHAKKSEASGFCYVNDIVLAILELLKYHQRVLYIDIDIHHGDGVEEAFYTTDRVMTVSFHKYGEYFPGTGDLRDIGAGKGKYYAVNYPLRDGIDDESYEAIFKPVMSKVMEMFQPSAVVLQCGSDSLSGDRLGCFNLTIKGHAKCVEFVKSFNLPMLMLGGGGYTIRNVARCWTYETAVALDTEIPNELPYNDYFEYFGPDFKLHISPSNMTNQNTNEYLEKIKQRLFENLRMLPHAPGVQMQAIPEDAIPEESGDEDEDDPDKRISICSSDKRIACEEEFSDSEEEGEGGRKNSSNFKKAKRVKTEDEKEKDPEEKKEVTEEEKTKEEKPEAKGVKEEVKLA
Human recombinant full length HDAC6, sequence (Q9UBN7 whole entry): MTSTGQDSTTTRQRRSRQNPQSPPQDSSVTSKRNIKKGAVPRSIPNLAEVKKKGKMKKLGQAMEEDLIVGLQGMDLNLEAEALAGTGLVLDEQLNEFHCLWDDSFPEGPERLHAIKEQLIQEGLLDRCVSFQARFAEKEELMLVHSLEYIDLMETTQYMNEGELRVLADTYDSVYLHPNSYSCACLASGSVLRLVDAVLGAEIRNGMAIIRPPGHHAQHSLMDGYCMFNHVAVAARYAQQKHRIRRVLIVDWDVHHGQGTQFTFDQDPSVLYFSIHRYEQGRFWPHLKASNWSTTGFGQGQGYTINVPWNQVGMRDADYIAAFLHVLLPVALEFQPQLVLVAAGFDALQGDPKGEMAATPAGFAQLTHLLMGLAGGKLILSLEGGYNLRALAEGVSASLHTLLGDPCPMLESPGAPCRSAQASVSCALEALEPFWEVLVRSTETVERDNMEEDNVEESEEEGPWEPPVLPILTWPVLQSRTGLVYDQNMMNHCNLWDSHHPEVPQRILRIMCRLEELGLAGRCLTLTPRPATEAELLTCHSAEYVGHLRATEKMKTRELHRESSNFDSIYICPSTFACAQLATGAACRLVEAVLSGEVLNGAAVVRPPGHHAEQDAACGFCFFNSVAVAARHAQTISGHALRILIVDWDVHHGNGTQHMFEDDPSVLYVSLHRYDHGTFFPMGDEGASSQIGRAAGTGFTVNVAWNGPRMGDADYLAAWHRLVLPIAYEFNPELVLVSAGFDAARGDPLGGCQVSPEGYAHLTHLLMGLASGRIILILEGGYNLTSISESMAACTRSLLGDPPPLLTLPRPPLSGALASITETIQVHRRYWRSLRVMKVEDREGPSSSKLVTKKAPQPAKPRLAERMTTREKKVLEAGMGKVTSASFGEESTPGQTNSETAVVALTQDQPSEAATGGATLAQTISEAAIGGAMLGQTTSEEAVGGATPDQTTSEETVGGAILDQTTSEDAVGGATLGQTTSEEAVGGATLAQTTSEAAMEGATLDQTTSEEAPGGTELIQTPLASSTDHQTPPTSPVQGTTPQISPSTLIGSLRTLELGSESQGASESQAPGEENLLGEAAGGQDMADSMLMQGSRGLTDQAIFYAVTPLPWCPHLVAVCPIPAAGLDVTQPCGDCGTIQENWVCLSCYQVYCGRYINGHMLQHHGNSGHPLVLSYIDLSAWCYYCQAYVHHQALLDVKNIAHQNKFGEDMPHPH

`CCN(CC)C[C@@H](C)NC(=O)c1ccc(-c2noc(C(F)(F)F)n2)nc1` [Example 23, (R)—N-(1-(diethylamino)propan-2-yl)-6-(5-(trifluoromethyl)-1,2,4-oxadiazol-3-yl)nicotinamide]: the IC50 is 28 nM at Human recombinant HDAC4, greater than 10 µM in assay [1] and greater than 10000 nM in assay [2].
Consider `C[C@H](CN(C)C)NC(=O)c1ccc(-c2noc(C(F)(F)F)n2)cn1` [Example 24, (R)—N-(1-(dimethylamino)propan-2-yl)-5-(5-(trifluoromethyl)-1,2,4-oxadiazol-3-yl)picolinamide], for which the 50% inhibitory concentration (IC50) at Human recombinant HDAC4 is 990 nM; in assay [1], greater than 10 µM; in assay [2], greater than 10000 nM.
For the compound `C[C@H](CN(C)C)NC(=O)c1ncc(-c2noc(C(F)(F)F)n2)cc1Cl` [Example 25, (R)-3-chloro-N-(1-(dimethylamino)propan-2-yl)-5-(5-(trifluoromethyl)-1,2,4-oxadiazol-3-yl)picolinamide], the values for the IC50 (on Human recombinant HDAC4; in assay [1]; in assay [2]) were 3600 nM, greater than 10 µM and greater than 10000 nM, respectively.
The like results for `C[C@H](CN(C)C)NC(=O)c1cnc(-c2noc(C(F)(F)F)n2)nc1` [Example 26, (R)—N-(1-(dimethylamino)propan-2-yl)-2-(5-(trifluoromethyl)-1,2,4-oxadiazol-3-yl)pyrimidine-5-carboxamide] were, in that order, 420 nM, greater than 10 µM and greater than 10000 nM.
In the case of `FC(F)(F)c1nc(-c2ccc(NCc3ccccc3)cn2)no1` [Example 27, N-benzyl-6-(5-(trifluoromethyl)-1,2,4-oxadiazol-3-yl)pyridin-3-amine], the IC50 at Human recombinant HDAC4 was 2800 nM; in assay [1], 9.6 µM; in assay [2] it was greater than 10000 nM.
Regarding `FC(F)(F)c1nc(-c2ccc(NCc3ccccc3)nc2)no1` [Example 28, N-benzyl-5-(5-(trifluoromethyl)-1,2,4-oxadiazol-3-yl)pyridin-2-amine], the IC50 is 73 nM at Human recombinant HDAC4, greater than 10 µM in assay [1] and 3000 nM in assay [2].
As to `CC(Nc1ccc(-c2noc(C(F)(F)F)n2)cn1)c1ccccc1` (stereo not drawn) [Example 29, N-(1-phenylethyl)-5-(5-(trifluoromethyl)-1,2,4-oxadiazol-3-yl)pyridin-2-amine], the figures for the IC50 (at Human recombinant HDAC4; in assay [1]; in assay [2]) were 27 nM, 6.2 µM and 640 nM, respectively.
With `FC(F)(F)c1nc(-c2ccc(NCc3cccnc3)nc2)no1` [Example 30, N-(pyridin-3-ylmethyl)-5-(5-(trifluoromethyl)-1,2,4-oxadiazol-3-yl)pyridin-2-amine], the results for the IC50 (on Human recombinant HDAC4; in assay [1]; in assay [2]) were 79 nM, 6.1 µM and 1800 nM, respectively.
On to `FC(F)(F)c1nc(-c2ccc(NCc3ccncc3)nc2)no1` [Example 31, N-(pyridin-4-ylmethyl)-5-(5-(trifluoromethyl)-1,2,4-oxadiazol-3-yl)pyridin-2-amine], for which the figures for the 50% inhibitory concentration (IC50) (at Human recombinant HDAC4; in assay [1]; in assay [2]) were 41 nM, 4.5 µM and 1600 nM, respectively.
On to `Cc1ccc(CNc2ccc(-c3noc(C(F)(F)F)n3)cn2)cn1` [Example 32, N-((6-methylpyridin-3-yl)methyl)-5-(5-(trifluoromethyl)-1,2,4-oxadiazol-3-yl)pyridin-2-amine], for which the IC50 came to 63 nM at Human recombinant HDAC4, 2.4 µM in assay [1] and 770 nM in assay [2].
As to `FC(F)(F)c1nc(-c2cnc(NCc3ccccc3)c(Cl)c2)no1` [Example 33, N-benzyl-3-chloro-5-(5-(trifluoromethyl)-1,2,4-oxadiazol-3-yl)pyridin-2-amine], the IC50 was 93 nM at Human recombinant HDAC4, greater than 10 µM in assay [1] and greater than 10000 nM in assay [2].
In the case of `C[C@@H](Nc1ncc(-c2noc(C(F)(F)F)n2)cc1Cl)c1ccccc1` [Example 34, (R)-3-chloro-N-(1-phenylethyl)-5-(5-(trifluoromethyl)-1,2,4-oxadiazol-3-yl)pyridin-2-amine], the IC50 on Human recombinant HDAC4 worked out at 47 nM; in assay [1] it was 6.3 µM; in assay [2], 4500 nM.
